The text below walks through data of US20210154161A1, “MODIFIED-RELEASE BUCILLAMINE COMPOSITIONS, KITS, AND METHODS FOR TREATING CYSTINURIA, ARTHRITIS, GOUT, AND RELATED DISORDERS” (ALTIBIO, INC., priority 2017, published 2021).

A short description of data set [1]: Example 3: cystine stone formation in cystinuria patients, about 1 week. Type of data set: in vivo, human. The note with it: Days 2-8, enterically-coated bucillamine oral 100 mg x 8 or x 12 times/day. On the procedure: This Example describes a study to confirm the improved efficacy of reducing cystine stone formation in cystinuria patients who develop at least one stone per week using standard Thiola® dosing. Study Design: […] The patients are dosed as follows: Day 1: No treatment; an X-ray is taken of the kidney and bladder. Days 2-8: To simulate extended release, enterically-coated bucillamine is orally administered at either 100 mg x 8 times/day (i.e., every three hours) or 100 mg x 12 times/day (i.e., every two hours). A simple enteric coating is used that avoids release in the stomach. Also, 24 hour urine cystine capacity is measured, that is, all urine over a 24-hour period, starting from the time of the first dose, is collected and used to measure urinary cystine concentration. Day 8: X-ray examination of Day 1 is repeated.

Data set [2] can be described thus: Short- and long-term stability of bucillamine in Beagle dog plasma. Format: in vitro ADME. On the procedure: Stability Testing: Finally, short-term and long-term stability of bucillamine in Beagle dog plasma, pre-crashed plasma (plasma supernatant), and urine were assessed using two bucillamine concentrations (50 ng/mL or 500 ng/mL) under each of the following two conditions: (1) storage on the bench top for 4 hours and (2) frozen at −80° C. for up to one month. Samples were considered stable if their concentrations were within ±20% of nominal. These samples met acceptable criteria for stability and results are presented below, in Tables 5, 6, and 7, showing the % bucillamine remaining in Beagle dog plasma (Table 5), plasma supernatant (Table 6), and urine (Table 7).

A short description of data set [3]: Example 5: urine cystine in cystinuria dogs, simulated extended-release bucillamine. Conditions: enterically-coated bucillamine 8 times/day, same total daily dosage. Type of data set: in vivo. On the procedure: This Example describes a study to confirm the feasibility of reducing cystine levels in the urine of cystinuria dogs receiving more frequent and lower doses of bucillamine, in a dosing schedule designed to simulate the extended release formulations of the present invention, compared to urine cystine levels in cystinuria dogs receiving non-coated bucillamine. Study Design: Subject dogs are dosed as follows: Day 1: […] Day 2: Repeat Day 1 Day 3: No treatment Day 4: No treatment Day 5: To simulate extended-release, enterically-coated bucillamine is orally administered at lower dose, 8 times/day (i.e., every three hours), to provide a total daily dosage equal to that used in Days 1 and 2. A simple enteric coating is used that avoids release in the stomach. Also, 24 hour urine cystine capacity is measured, that is, all urine over a 24-hour period, starting from the time of the first dose, is collected and used to measure urinary cystine concentration. Day 6: Repeat Day 5

Data set [4] is described as follows: Total bucillamine plasma concentration after oral or intraduodenal dosing regimens. Type of data set: in vivo, male Beagle dogs. The note with it: n=3 dogs. On the procedure:
The objective of this study was to evaluate total and free plasma bucillamine, and urinary bucillamine, in male Beagle dogs following oral and intraduodenal administration of bucillamine, according to various dose regimens, to determine whether different regimens, simulating modified release in accordance with the present invention, would improve drug pharmacokinetics. Specifically, bucillamine formulations were administered to deliver 30 mg/kg per dog via single or multiple doses divided over a 12-hour period; and blood and urine samples then collected at different times post-dose.
Bucillamine formulations were administered to provide 30 mg/kg per dog according to five different dosage regimens (Leg 1, Leg 2, Leg 3, Leg 4, and Leg 5), as set forth in the table below. Leg 2, Leg 3, and Leg 4 (also referred to as Q6H, Q3H, and Q2H, respectively) were designed to simulate modified-release formulations, in accordance with certain embodiments of the present invention. Following administration, blood and urine samples were collected at the time points, or over the time intervals, also as indicated below.
Preparation of Dosing Formulations: Capsules for Legs 1-5 were prepared and filled on the day of dosing, as follows. For Legs 1, 2, and 5, bucillamine was dry mixed with avicel and mannitol to make a 40:30:30 mixture of bucillamine to avicel to mannitol, respectively; for study Legs 3 and 4, a 20:40:40 mixture of bucillamine to avicel to mannitol, respectively, was prepared. The dry mixes were custom filled with the appropriate amount of powder to deliver the specified doses to each dog based, on their respective body weights.
Animal Dosing and Sample Collection: This non-clinical study followed established practices and standard operating procedures of Absorption Systems and Absorption Systems Inc., as well as the study protocol. Study groups each included three dogs. The dogs were housed one per cage. For Legs 1-4, the dogs were fasted for at least six hours prior to each administration of the formulation. For Legs 1-4, food was given approximately ten hours post initial dosing. Animals had free access to water throughout the study. For Leg 5, the dogs were fasted for at least sixteen hours prior to each administration of the formulation. For Leg 5, food was given approximately eight hours post initial dosing. Animals had free access to water throughout the study. Additionally, each dog received a 60 mL subcutaneous injection of saline (a 30 mL injection, into each two different sites) approximately 30 minutes prior to dosing, for hydration.
Intraduodenal (ID) administration: Animals were anesthetized by a slow IV infusion of Propofol (6-10 mg/kg), or with an intramuscular injection of a cocktail containing ketamine (approximately 10-20 mg/kg), diazepam (3 mg/kg), and acepromazine (0.05 mg/kg) given IM about 5-10 minutes before intubation. Once animals were confirmed adequately anesthetized, they were intubated and maintained using isoflurane (approximately 1-5% in oxygen 1 to 4 L/min) as necessary until dosing was complete. Formulations were administered into the proximal duodenum via endoscopic guidance to verify the dosing site. The endoscope first was maneuvered into the pyloric sphincter with camera visualization of the proximal duodenum. Once there was confirmation that the endoscope was placed between the pylorus and proximal duodenum, the test article was delivered to the proximal duodenum followed by a 5 mL flush. […]

In the case of `CC(C)(S)C(=O)N[C@@H](CS)C(=O)O` [bucillamine, N-(2-mercapto-2-methylpropionyl)-L-cysteine], in data set [1], the “additional cystine stones on X-ray of Day 8 compared to Day 1” value is “no additional stones”. Also, the “% Bucillamine Remaining in Beagle Dog Plasma” value in data set [2] (50 ng/mL (low), -80 C freezer for 1 week) is recorded as 114%; in data set [2] (50 ng/mL (low), -80 C freezer for 2 weeks) it was 108%; in data set [2] (50 ng/mL (low), -80 C freezer for 4 weeks), 114%; in data set [2] (50 ng/mL (low), bench top (RT) for 4 hours), 110%; in data set [2] (500 ng/mL (high), -80 C freezer for 1 week) it was 96.4%; in data set [2] (500 ng/mL (high), -80 C freezer for 2 weeks) it was 97.3%. In addition, the “% Bucillamine Remaining in Beagle Dog Plasma” value in data set [2] (500 ng/mL (high), -80 C freezer for 4 weeks) was found to be 107%; in data set [2] (500 ng/mL (high), bench top (RT) for 4 hours) it was 96.9%. Besides, the “urine cystine levels over Days 5-6 compared with Days 1-2 of uncoated (immediate-release) dosing” value in data set [3] was “consistently lower”. Besides, the “maximum plasma concentrations of total bucillamine (average)” value in data set [4] (Leg 1 (Q12H): PO, single 30 mg/kg dose) came to 24400 ± 8253 ng/mL; in data set [4] (Leg 2: PO 30 mg/kg as two 15 mg/kg doses at 0 and 6 h), 33533 ± 2139 ng/mL; in data set [4] (Leg 3 (Q3H): PO 30 mg/kg as four 7.5 mg/kg doses at 0, 3, 6, 9 h), 25133 ± 3500 ng/mL; in data set [4] (Leg 4: PO 30 mg/kg as six 5 mg/kg doses at 0, 2, 4, 6, 8, 10 h), 23800 ± 819 ng/mL; in data set [4] (Leg 5 (Q12H): ID, single 30 mg/kg dose), 19940 ± 11015 ng/mL.
